# Data taken from US12528815B2, “5-amino-8-(4-pyridyl)-[1,2,4]triazolo[4,3-c]pyrimidin-3-one compounds for use against cancer” (Nxera Pharma UK Limited, priority 2020, dated 2026).
# Assays:
# [1] = target: T1, human adenosine A1 receptor (Homo sapiens, UniProt P30542); experiment: Inhibition binding assay, human adenosine A1 receptor membranes, [3H]DPCPX; settings: 1 nM [3H]DPCPX, 25° C., 1 h; IC50 converted to Ki with Cheng-Prusoff; read-out: A1 pKi (converted)
# T1 construct: expressed in transfected cells; host or cells: HEK293 cells infected with BacMam (the same paragraph also labels the preparation CHO-hA1)
# T1 sequence (P30542 1-326): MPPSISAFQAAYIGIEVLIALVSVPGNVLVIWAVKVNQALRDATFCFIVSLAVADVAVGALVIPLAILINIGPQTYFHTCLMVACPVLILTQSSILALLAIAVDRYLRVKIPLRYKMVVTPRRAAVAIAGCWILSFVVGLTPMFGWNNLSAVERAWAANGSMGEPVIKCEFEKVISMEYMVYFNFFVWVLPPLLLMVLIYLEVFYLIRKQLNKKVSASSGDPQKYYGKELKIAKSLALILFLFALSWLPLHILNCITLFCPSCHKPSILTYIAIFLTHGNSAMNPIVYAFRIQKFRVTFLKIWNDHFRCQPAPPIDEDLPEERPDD
# Summary of the method: (§1)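 Membranes from BacMam-infected HEK293 cells (0.2 μg A2A, 1.4 μg A1) incubated 1 h at 25° C with test compound and 1 nM [3H]ZM241385 (A2A; 50 mM Tris-HCl pH 7.4) or [3H]DPCPX (A1; plus 100 mM NaCl, 10 mM MgCl2). Nonspecific: 1 μM CGS15943 or DPCPX. Filtration, scintillation; IC50 converted to Ki via Cheng-Prusoff.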
# [2] = target: T2, human adenosine A2A receptor (Homo sapiens, UniProt P29274); experiment: Inhibition binding assay, human adenosine A2A receptor membranes, [3H]ZM241385; settings: 1 nM [3H]ZM241385, HEK293-hA2A membranes, 25° C., 1 h; IC50 converted to Ki with Cheng-Prusoff; read-out: A2A pKi (converted)
# T2 construct: expressed in transfected cells; host or cells: HEK293 cells infected with BacMam
# Summary of the method: as §1
# T2 sequence (P29274 whole entry): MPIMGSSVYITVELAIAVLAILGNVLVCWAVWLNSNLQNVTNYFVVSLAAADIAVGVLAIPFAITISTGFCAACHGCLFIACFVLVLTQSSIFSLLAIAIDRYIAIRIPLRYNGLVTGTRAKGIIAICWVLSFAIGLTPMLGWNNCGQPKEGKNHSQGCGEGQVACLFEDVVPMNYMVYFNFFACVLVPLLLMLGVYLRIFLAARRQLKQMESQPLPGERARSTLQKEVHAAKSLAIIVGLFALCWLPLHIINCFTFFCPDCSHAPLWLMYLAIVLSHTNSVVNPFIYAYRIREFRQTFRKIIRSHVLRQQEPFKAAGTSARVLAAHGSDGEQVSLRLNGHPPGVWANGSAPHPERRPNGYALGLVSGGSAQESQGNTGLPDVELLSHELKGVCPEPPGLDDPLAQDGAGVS
SMILES,Ki [1],Ki [2]
"Cc1cc(-c2c(-c3ccc(F)cc3)nc(N)n3c(=O)n(Cc4ccc(Cl)cn4)nc23)cc(CO)n1 [Example 1-62, 5-amino-2-[(5-chloro-2-pyridyl)methyl]-7-(4-fluorophenyl)-8-[2-(hydroxymethyl)-6-methyl-4-pyridyl]-[1,2,4]triazolo[4,3-c]pyrimidin-3-one]",1000 nM,3.98 nM
"Cc1cc(-c2c(-c3ccc(F)cc3)nc(N)n3c(=O)n(Cc4ccc(F)c(N)n4)nc23)cc(CO)n1 [Example 1-60, 5-amino-2-[(6-amino-5-fluoro-2-pyridyl)methyl]-7-(4-fluorophenyl)-8-[2-(hydroxymethyl)-6-methyl-4-pyridyl]-[1,2,4]triazolo[4,3-c]pyrimidin-3-one]",794 nM,1.58 nM
"Cc1cc(-c2c(-c3ccccc3)nc(N)n3c(=O)n(CCN[C@@H](C)c4cccc(C)n4)nc23)cc(C)n1 [Example 1-94, 5-amino-8-(2,6-dimethyl-4-pyridyl)-2-[2-[[(1S)-1-(6-methyl-2-pyridyl)ethyl]amino]ethyl]-7-phenyl-[1,2,4]triazolo[4,3-c]pyrimidin-3-one]",398 nM,10 nM
"COc1ccc(Cn2nc3c(-c4cc(C)nc(Cl)c4)c(-c4ccccc4)nc(N)n3c2=O)nc1 [Example 1-77, 5-amino-8-(2-chloro-6-methyl-4-pyridyl)-2-[(5-methoxy-2-pyridyl)methyl]-7-phenyl-[1,2,4]triazolo[4,3-c]pyrimidin-3-one]",200 nM,0.398 nM
"Cc1cc(-c2c(-c3ccccc3)nc(N)n3c(=O)n(Cc4cccc(F)c4Cl)nc23)cc(C)n1 [Example 1-21, 5-amino-2-[(2-chloro-3-fluoro-phenyl)methyl]-8-(2,6-dimethyl-4-pyridyl)-7-phenyl-[1,2,4]triazolo[4,3-c]pyrimidin-3-one]",10 nM,0.501 nM
"Cc1cc(-c2c(-c3ccccc3)nc(N)n3c(=O)n(Cc4ccccc4CN(C)C)nc23)cc(C)n1 [Example 1-24, 5-amino-2-[[2-[(dimethylamino)methyl]phenyl]methyl]-8-(2,6-dimethyl-4-pyridyl)-7-phenyl-[1,2,4]triazolo[4,3-c]pyrimidin-3-one]",15.8 nM,0.126 nM
"Cc1cc(-c2c(-c3ccccc3)nc(N)n3c(=O)n(CC4CCCS(=O)(=O)C4)nc23)cc(C)n1 (single isomer, unassigned) [Example 2-89-iso-1, 5-amino-8-(2,6-dimethyl-4-pyridyl)-2-[(1,1-dioxothian-3-yl)methyl]-7-phenyl-[1,2,4]triazolo[4,3-c]pyrimidin-3-one]",398 nM,10 nM
"Cc1cc(-c2c(-c3ccccc3)nc(N)n3c(=O)n(Cc4ccc(F)c(=O)[nH]4)nc23)cc(C)n1 [Example 1-8, 5-amino-8-(2,6-dimethyl-4-pyridyl)-2-[(5-fluoro-6-oxo-1H-pyridin-2-yl)methyl]-7-phenyl-[1,2,4]triazolo[4,3-c]pyrimidin-3-one]",316 nM,25.1 nM
"Cc1cc(-c2c(-c3ccccc3)nc(N)n3c(=O)n(CC4CCCOC4)nc23)cc(C)n1 (single isomer, unassigned) [Example 2-81-iso-2, 5-amino-8-(2,6-dimethyl-4-pyridyl)-7-phenyl-2-(tetrahydropyran-3-ylmethyl)-[1,2,4]triazolo[4,3-c]pyrimidin-3-one]",126 nM,1 nM
"Cc1cc(-c2c(-c3ccccc3)nc(N)n3c(=O)n(Cc4ccc(O)cc4)nc23)cc(C)n1 [Example 1-4, 5-amino-8-(2,6-dimethyl-4-pyridyl)-2-[(4-hydroxyphenyl)methyl]-7-phenyl-[1,2,4]triazolo[4,3-c]pyrimidin-3-one]",501 nM,1.26 nM
"Cc1cc(-c2c(-c3ccccc3)nc(N)n3c(=O)n(CCNC(C)c4nnc5ncccn45)nc23)cc(C)n1 (centres unmarked) [Example 1-92, 5-amino-8-(2,6-dimethyl-4-pyridyl)-7-phenyl-2-[2-[1-([1,2,4]triazolo[4,3-a]pyrimidin-3-yl)ethylamino]ethyl]-[1,2,4]triazolo[4,3-c]pyrimidin-3-one]",> 3980 nM,126 nM
"Cc1cc(-c2c(-c3ccccc3)nc(N)n3c(=O)n([C@@H]4CCCc5ccc(F)cc54)nc23)cc(C)n1 [Example 1-14, (R)-5-amino-8-(2,6-dimethyl-4-pyridyl)-2-(7-fluorotetralin-1-yl)-7-phenyl-[1,2,4]triazolo[4,3-c]pyrimidin-3-one]",20 nM,3.16 nM
"Cc1cc(-c2c(-c3ccccc3)nc(N)n3c(=O)n(C(CC4COCCN4)c4ccccc4)nc23)cc(C)n1 (centres unmarked) [Example 1-103, 5-amino-8-(2,6-dimethyl-4-pyridyl)-2-(2-morpholin-3-yl-1-phenyl-ethyl)-7-phenyl-[1,2,4]triazolo[4,3-c]pyrimidin-3-one]",1000 nM,15.8 nM
"Cc1cc(-c2c(-c3ccccc3)nc(N)n3c(=O)n(Cc4ccc(F)c(O)n4)nc23)cc(CO)n1 [Example 1-48, 5-amino-2-[(5-fluoro-6-hydroxy-2-pyridyl)methyl]-8-[2-(hydroxymethyl)-6-methyl-4-pyridyl]-7-phenyl-[1,2,4]triazolo[4,3-c]pyrimidin-3-one]",> 2510 nM,10 nM
"Cc1cc(-c2c(-c3ccccc3)nc(N)n3c(=O)n(Cc4ncc(F)cn4)nc23)cc(C)n1 [Example 1-35, 5-amino-8-(2,6-dimethyl-4-pyridyl)-2-[(5-fluoropyrimidin-2-yl)methyl]-7-phenyl-[1,2,4]triazolo[4,3-c]pyrimidin-3-one]",1000 nM,15.8 nM
"Cc1cc(-c2c(-c3ccccc3)nc(N)n3c(=O)n(Cc4ccc(F)cn4)nc23)cc(N(C)C)n1 [Example 1-71, 5-amino-8-[2-(dimethylamino)-6-methyl-4-pyridyl]-2-[(5-fluoro-2-pyridyl)methyl]-7-phenyl-[1,2,4]triazolo[4,3-c]pyrimidin-3-one]",631 nM,20 nM
"Cc1cc(-c2c(-c3ccc(F)cc3)nc(N)n3c(=O)n(CCc4ccccc4)nc23)cc(C)n1 [Example 1-87, 5-amino-8-(2,6-dimethyl-4-pyridyl)-7-(4-fluorophenyl)-2-(2-phenylethyl)-[1,2,4]triazolo[4,3-c]pyrimidin-3-one]",501 nM,15.8 nM
"Cc1cc(-c2c(-c3ccccc3)nc(N)n3c(=O)n(C(CN)c4c(F)cccc4F)nc23)cc(C)n1 (centres unmarked) [Example 1-34, 5-amino-2-(2-amino-1-(2,6-difluorophenyl)ethyl)-8-(2,6-dimethylpyridin-4-yl)-7-phenyl-[1,2,4]triazolo[4,3-c]pyrimidin-3(2H)-one]",100 nM,1 nM

# Further lines, results first:
Ki [1],Ki [2],SMILES
31.6 nM,0.631 nM,"CCC1(C)CC1Cn1nc2c(-c3cc(C)nc(C)c3)c(-c3ccccc3)nc(N)n2c1=O (centres unmarked) [Example 2-27, 5-amino-8-(2,6-dimethyl-4-pyridyl)-2-[(2-ethyl-2-methyl-cyclopropyl)methyl]-7-phenyl-[1,2,4]triazolo[4,3-c]pyrimidin-3-one]"
79.4 nM,5.01 nM,"Cc1cc(-c2c(-c3ccccc3)nc(N)n3c(=O)[nH]nc23)cc(C)n1 [Example 2-1, 5-amino-8-(2,6-dimethyl-4-pyridyl)-7-phenyl-2H-[1,2,4]triazolo[4,3-c]pyrimidin-3-one]"
6.31 nM,0.794 nM,"Cc1cc(-c2c(-c3ccccc3)nc(N)n3c(=O)n(CCC(F)(F)F)nc23)cc(Cl)n1 [Example 2-48, 5-amino-8-(2-chloro-6-methyl-4-pyridyl)-7-phenyl-2-(3,3,3-trifluoropropyl)-[1,2,4]triazolo[4,3-c]pyrimidin-3-one]"
631 nM,6.31 nM,"Cc1cc(-c2c(-c3ccccc3)nc(N)n3c(=O)n(CCC4CCN(C)CC4)nc23)cc(C)n1 [Example 2-97, 5-amino-8-(2,6-dimethyl-4-pyridyl)-2-[2-(1-methyl-4-piperidyl)ethyl]-7-phenyl-[1,2,4]triazolo[4,3-c]pyrimidin-3-one]"
501 nM,3.98 nM,"Cc1cc(-c2c(-c3ccccc3)nc(N)n3c(=O)n(C4CCCN(C)C4)nc23)cc(C)n1 (centres unmarked) [Example 2-70, 5-amino-8-(2,6-dimethyl-4-pyridyl)-2-(1-methyl-3-piperidyl)-7-phenyl-[1,2,4]triazolo[4,3-c]pyrimidin-3-one]"
> 2510 nM,31.6 nM,"Cc1cc(-c2c(-c3ccc(F)cc3)nc(N)n3c(=O)n(CCN4CCCCC4)nc23)cc(Cl)n1 [Example 2-105, 5-amino-8-(2-chloro-6-methyl-4-pyridyl)-7-(4-fluorophenyl)-2-[2-(1-piperidyl)ethyl]-[1,2,4]triazolo[4,3-c]pyrimidin-3-one]"
> 3160 nM,10 nM,"C/C=C(\C)c1nc(N)n2c(=O)n(CCC(F)(F)F)nc2c1-c1cc(C)nc(C)c1 [Example 3-10, 5-amino-8-(2,6-dimethyl-4-pyridyl)-7-[(E)-1-methylprop-1-enyl]-2-(3,3,3-trifluoropropyl)-[1,2,4]triazolo[4,3-c]pyrimidin-3-one]"
